# Laboratory results: patent US7615569B2, “Inhibitors of ion channels” (Icagen, Inc., priority 2005, dated 2009)
# Target: T1, hSCN3A (Homo sapiens, UniProt Q9NY46)
# T1 construct: expressed in transfected cells
# Assay: SCN3A inhibitory activity in HEK cells stably expressing hSCN3A (whole-cell patch clamp / radiotracer efflux HTS)
# Type: cell-based
# Details: HEK cells stably transfected with hSCN3A
# T1 sequence (Q9NY46 whole entry): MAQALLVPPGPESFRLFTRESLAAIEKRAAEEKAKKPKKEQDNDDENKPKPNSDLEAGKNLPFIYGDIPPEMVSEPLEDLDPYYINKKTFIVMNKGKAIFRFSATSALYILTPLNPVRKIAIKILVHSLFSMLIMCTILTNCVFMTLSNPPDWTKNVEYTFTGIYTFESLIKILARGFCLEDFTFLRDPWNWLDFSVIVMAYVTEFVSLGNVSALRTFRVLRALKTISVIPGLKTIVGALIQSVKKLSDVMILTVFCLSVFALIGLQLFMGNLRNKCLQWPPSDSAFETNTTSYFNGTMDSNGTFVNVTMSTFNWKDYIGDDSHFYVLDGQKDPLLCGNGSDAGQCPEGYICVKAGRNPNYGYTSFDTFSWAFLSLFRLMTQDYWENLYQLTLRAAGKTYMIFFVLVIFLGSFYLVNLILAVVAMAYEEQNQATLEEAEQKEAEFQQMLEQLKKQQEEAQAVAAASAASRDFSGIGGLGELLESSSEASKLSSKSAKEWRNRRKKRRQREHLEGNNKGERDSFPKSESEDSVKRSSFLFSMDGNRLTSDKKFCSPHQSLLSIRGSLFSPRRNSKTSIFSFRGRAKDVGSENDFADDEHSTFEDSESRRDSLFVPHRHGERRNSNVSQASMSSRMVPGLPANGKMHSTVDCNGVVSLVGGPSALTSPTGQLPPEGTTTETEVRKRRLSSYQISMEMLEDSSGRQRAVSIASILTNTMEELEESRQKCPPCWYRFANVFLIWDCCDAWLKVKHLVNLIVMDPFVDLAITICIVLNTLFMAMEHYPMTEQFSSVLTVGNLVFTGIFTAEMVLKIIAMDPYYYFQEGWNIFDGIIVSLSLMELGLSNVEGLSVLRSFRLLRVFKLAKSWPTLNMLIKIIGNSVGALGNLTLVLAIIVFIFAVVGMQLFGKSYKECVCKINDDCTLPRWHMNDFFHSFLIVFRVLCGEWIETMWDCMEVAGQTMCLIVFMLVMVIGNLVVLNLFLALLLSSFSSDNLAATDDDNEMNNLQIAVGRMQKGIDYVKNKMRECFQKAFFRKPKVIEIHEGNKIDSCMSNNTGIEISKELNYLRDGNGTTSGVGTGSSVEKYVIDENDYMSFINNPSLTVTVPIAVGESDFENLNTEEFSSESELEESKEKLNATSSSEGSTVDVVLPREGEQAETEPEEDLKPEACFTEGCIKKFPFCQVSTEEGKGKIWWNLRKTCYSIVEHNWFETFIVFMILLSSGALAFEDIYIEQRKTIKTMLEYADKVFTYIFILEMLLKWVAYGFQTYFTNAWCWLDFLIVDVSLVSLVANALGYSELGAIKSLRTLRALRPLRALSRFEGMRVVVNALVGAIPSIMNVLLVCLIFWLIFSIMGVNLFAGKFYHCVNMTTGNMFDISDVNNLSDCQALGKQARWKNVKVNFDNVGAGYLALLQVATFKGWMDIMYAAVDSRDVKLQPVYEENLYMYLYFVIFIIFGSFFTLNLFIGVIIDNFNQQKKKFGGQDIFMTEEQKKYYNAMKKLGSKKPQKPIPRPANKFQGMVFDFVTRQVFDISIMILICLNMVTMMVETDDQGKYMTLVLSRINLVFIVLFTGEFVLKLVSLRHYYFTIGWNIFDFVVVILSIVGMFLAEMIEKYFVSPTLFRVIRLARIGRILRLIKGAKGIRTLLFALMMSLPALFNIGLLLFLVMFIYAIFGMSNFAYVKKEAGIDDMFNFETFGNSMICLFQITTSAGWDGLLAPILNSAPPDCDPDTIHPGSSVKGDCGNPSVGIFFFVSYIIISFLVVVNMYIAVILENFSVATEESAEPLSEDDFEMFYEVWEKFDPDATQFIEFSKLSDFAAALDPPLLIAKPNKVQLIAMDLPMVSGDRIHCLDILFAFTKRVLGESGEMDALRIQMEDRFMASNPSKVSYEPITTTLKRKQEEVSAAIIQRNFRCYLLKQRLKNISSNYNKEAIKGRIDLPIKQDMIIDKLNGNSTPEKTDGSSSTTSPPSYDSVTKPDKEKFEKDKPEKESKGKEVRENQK
row,IC50,Compound
1,0.1 to 0.5 µM,"O=S(=O)(Nc1nccs1)c1ccc(-c2nc(Cc3ccc(F)c(F)c3)c[nH]2)cc1 [Compound 23, 4-[4-(3,4-Difluoro-benzyl)-1H-imidazol-2-yl]-N-thiazol-2-yl-benzenesulfonamide]"
2,< 0.1 µM,"O=S(=O)(Nc1nccs1)c1ccc(-c2nc(Cc3ccc(F)cc3Cl)c[nH]2)cc1 [Compound 13, 4-[4-(2-Chloro-4-fluoro-benzyl)-1H-imidazol-2-yl]-N-thiazol-2-yl-benzenesulfonamide]"
3,0.5 to 1 µM,"COCn1c(Cc2ccc(Cl)c(Cl)c2)nnc1-c1ccc(S(=O)(=O)Nc2nccs2)cc1 [Compound 97, 4-[5-(3,4-Dichloro-benzyl)-4-methoxymethyl-4H-[1,2,4]triazol-3-yl]-N-thiazol-2-yl-benzenesulfonamide]"
4,0.1 to 0.5 µM,"Cc1ccc(C2(c3c[nH]c(-c4ccc(S(=O)(=O)Nc5nccs5)cc4)n3)CCCCC2)cc1 [Compound 21, N-Thiazol-2-yl-4-[4-(1-p-tolyl-cyclohexyl)-1H-imidazol-2-yl]-benzenesulfonamide]"
5,< 0.1 µM,"O=S(=O)(Nc1nccs1)c1ccc(-c2nc(CCc3cc(Cl)cc(Cl)c3)c[nH]2)cc1 [Compound 26, 4-{4-[2-(3,5-Dichloro-phenyl)-ethyl]-1H-imidazol-2-yl}-N-thiazol-2-yl-benzenesulfonamide]"
6,> 1 µM,"CS(=O)(=O)c1ccc(Cc2c[nH]c(-c3ccc(S(=O)(=O)Nc4nccs4)cc3)n2)cc1 [Compound 54, 4-[4-(4-Methanesulfonyl-benzyl)-1H-imidazol-2-yl]-N-thiazol-2-yl-benzenesulfonamide]"
7,> 1 µM,"O=S(=O)(Nc1nccs1)c1ccc(-c2nc(COc3c(Cl)cccc3Cl)n[nH]2)cc1 [Compound 119, 4-[5-(2,6-Dichloro-phenoxymethyl)-2H-[1,2,4]triazol-3-yl]-n-thiazol-2-yl-benzenesulfonamide]"
8,< 0.1 µM,"O=S(=O)(Nc1nccs1)c1ccc(-c2nc(CCc3cc(Cl)cc(Cl)c3)c(I)[nH]2)cc1 [Compound 68, 4-{4-[2-(3,5-Dichloro-phenyl)-ethyl]-5-iodo-1H-imidazol-2-yl}-N-thiazol-2-yl-benzenesulfonamide]"
9,0.1 to 0.5 µM,"O=S(=O)(Nc1nccs1)c1ccc(-c2cc(CCCOc3ccc(Cl)cc3Cl)[nH]n2)cc1 [Compound 123, 4-{5-[3-(2,4-Dichloro-phenoxy)-propyl]-1H-pyrazol-3-yl}-N-thiazol-2-yl-benzenesulfonamide]"
10,0.1 to 0.5 µM,"O=S(=O)(Nc1nccs1)c1ccc(-c2nc(-c3ccccc3)c(-c3ccccc3)[nH]2)cc1 [Compound 1, 4-(4,5-Diphenyl-1H-imidazol-2-yl)-N-thiazol-2-yl-benzenesulfonamide]"
11,> 1 µM,"Cc1ccc(Cc2c[nH]c(-c3ccc(S(=O)(=O)Nc4nccs4)cc3)n2)cc1 [Compound 32, 4-[4-(4-Methyl-benzyl)-1H-imidazol-2-yl]-N-thiazol-2-yl-benzenesulfonamide]"
12,0.1 to 0.5 µM,"O=S(=O)(Nc1nccs1)c1ccc(-c2nc(Cc3ccccc3C(F)(F)F)c[nH]2)cc1 [Compound 51, N-Thiazol-2-yl-4-[4-(2-trifluoromethyl-benzyl)-1H-imidazol-2-yl]-benzenesulfonamide]"
13,0.5 to 1 µM,"Cc1nc(-c2ccc(S(=O)(=O)Nc3nccs3)cc2)[nH]c1-c1ccccc1 [Compound 4, 4-(4-Methyl-5-phenyl-1H-imidazol-2-yl)-N-thiazol-2-yl-benzenesulfonamide]"
14,0.5 to 1 µM,"O=S(=O)(Nc1nccs1)c1ccc(-c2nc(Cc3ccccc3F)c[nH]2)cc1 [Compound 35, 4-[4-(2-Fluoro-benzyl)-1H-imidazol-2-yl]-N-thiazol-2-yl-benzenesulfonamide]"
15,0.1 to 0.5 µM,"O=S(=O)(Nc1nccs1)c1ccc(-c2ncc(C(c3ccccc3)c3ccccc3)[nH]2)cc1 [Compound 6, 4-(5-Benzhydryl-1H-imidazol-2-yl)-N-thiazol-2-yl-benzenesulfonamide]"
16,0.1 to 0.5 µM,"O=S(=O)(Nc1nccs1)c1ccc(-c2nnc(Cc3cccc(Cl)c3)[nH]2)cc1 [Compound 96, 4-[5-(3-Chloro-benzyl)-4H-[1,2,4]triazol-3-yl]-N-thiazol-2-yl-benzenesulfonamide]"
17,0.5 to 1 µM,"O=S(=O)(Nc1nccs1)c1ccc(-c2nc(COc3ncc(C(F)(F)F)cc3Cl)n[nH]2)cc1 [Compound 117, 4-[5-(3-Chloro-5-trifluoromethyl-pyridin-2-yloxymethyl)-2H-[1,2,4]triazol-3-yl]-n-thiazol-2-yl-benzenesulfonamide]"
18,0.1 to 0.5 µM,"Cc1cccc(Cc2c[nH]c(-c3ccc(S(=O)(=O)Nc4nccs4)cc3)n2)c1 [Compound 27, 4-[4-(3-Methyl-benzyl)-1H-imidazol-2-yl]-N-thiazol-2-yl-benzenesulfonamide]"
19,0.1 to 0.5 µM,"O=S(=O)(Nc1nccs1)c1ccc(-c2nc(CCc3ccc(C(F)(F)F)cc3)c[nH]2)cc1 [Compound 19, N-Thiazol-2-yl-4-{4-[2-(4-trifluoromethyl-phenyl)-ethyl]-1H-imidazol-2-yl}-benzenesulfonamide]"
20,0.1 to 0.5 µM,"Cc1ccc(C)c(CCc2c[nH]c(-c3ccc(S(=O)(=O)Nc4nccs4)cc3)n2)c1 [Compound 29, 4-{4-[2-(2,5-Dimethyl-phenyl)-ethyl]-1H-imidazol-2-yl}-N-thiazol-2-yl-benzenesulfonamide]"

row,IC50,Compound
1,0.5 to 1 µM,"Cc1ccccc1CCc1c[nH]c(-c2ccc(S(=O)(=O)Nc3nccs3)cc2)n1 [Compound 33, N-Thiazol-2-yl-4-[4-(2-o-tolyl-ethyl)-1H-imidazol-2-yl]-benzenesulfonamide]"
2,0.1 to 0.5 µM,"O=S(=O)(Nc1nccs1)c1ccc(-c2ncc(Cc3cc(F)cc(F)c3)[nH]2)cc1 [Compound 7, 4-[5-(3,5-Difluoro-benzyl)-1H-imidazol-2-yl]-N-thiazol-2-yl-benzenesulfonamide]"
3,0.1 to 0.5 µM,"O=S(=O)(Nc1nccs1)c1ccc(-c2nc(CCc3ccccc3Cl)c[nH]2)cc1 [Compound 14, 4-{4-[2-(2-Chloro-phenyl)-ethyl]-1H-imidazol-2-yl}-N-thiazol-2-yl-benzenesulfonamide]"
4,0.1 to 0.5 µM,"O=S(=O)(Nc1nccs1)c1ccc(-c2nc(-c3ncc(C(F)(F)F)cc3Cl)n[nH]2)cc1F [Compound 116, 4-[5-(3-Chloro-5-trifluoromethyl-pyridin-2-yl)-2H-[1,2,4]triazol-3-yl]-2-fluoro-n-thiazol-2-yl-benzenesulfonamide]"
5,0.5 to 1 µM,"COc1ccc(C2(c3c[nH]c(-c4ccc(S(=O)(=O)Nc5nccs5)cc4)n3)CC2)cc1 [Compound 44, 4-{4-[1-(4-Methoxy-phenyl)-cyclopropyl]-1H-imidazol-2-yl}-N-thiazol-2-yl-benzenesulfonamide]"
6,0.1 to 0.5 µM,"O=S(=O)(Nc1nccs1)c1ccc(-c2nnc(C(c3ccccc3)c3ccccc3)[nH]2)cc1 [Compound 3, 4-(5-Benzhydryl-4H-[1,2,4]triazol-3-yl)-N-thiazol-2-yl-benzenesulfonamide]"
7,< 0.1 µM,"O=S(=O)(Nc1nccs1)c1ccc(-c2nc(Cc3ccc(Cl)c(Cl)c3)c[nH]2)cc1 [Compound 36, 4-[4-(3,4-Dichloro-benzyl)-1H-imidazol-2-yl]-N-thiazol-2-yl-benzenesulfonamide]"
8,> 1 µM,"CC1(c2ccc(S(=O)(=O)Nc3nccs3)cc2)NC(=O)N(Cc2ccc(Cl)c(Cl)c2)C1=O (stereo not drawn) [Compound 100, 4-[1-(3,4-Dichloro-benzyl)-4-methyl-2,5-dioxo-imidazolidin-4-yl]-N-thiazol-2-yl-benzenesulfonamide]"
9,> 1 µM,"O=S(=O)(Nc1nccs1)c1ccc(-c2nc3ccccc3[nH]2)cc1 [Compound 10, 4-(1H-Benzoimidazol-2-yl)-N-thiazol-2-yl-benzenesulfonamide]"
10,> 1 µM,"CC1(c2ccc(S(=O)(=O)Nc3nccs3)cc2)C(=O)NC(=O)N1Cc1ccc(Cl)c(Cl)c1 (stereo not drawn) [Compound 99, 4-[3-(3,4-Dichloro-benzyl)-4-methyl-2,5-dioxo-imidazolidin-4-yl]-N-thiazol-2-yl-benzenesulfonamide]"
11,> 1 µM,"O=S(=O)(Nc1nccs1)c1ccc(-c2nnc(COc3ncc(Cl)cc3Cl)[nH]2)cc1 [Compound 120, 4-[5-(3,5-Dichloro-pyridin-2-yloxymethyl)-4H-[1,2,4]triazol-3-yl]-n-thiazol-2-yl-benzenesulfonamide]"
12,0.5 to 1 µM,"O=S(=O)(Nc1nccs1)c1ccc(-c2nc(Cc3ccc4c(c3)OCO4)c[nH]2)cc1 [Compound 49, 4-(4-Benzo[1,3]dioxol-5-ylmethyl-1H-imidazol-2-yl)-N-thiazol-2-yl-benzenesulfonamide]"
13,0.1 to 0.5 µM,"COc1ccc(CCc2c[nH]c(-c3ccc(S(=O)(=O)Nc4nccs4)cc3)n2)cc1Cl [Compound 18, 4-{4-[2-(3-Chloro-4-methoxy-phenyl)-ethyl]-1H-imidazol-2-yl}-N-thiazol-2-yl-benzenesulfonamide]"
14,< 0.1 µM,"O=S(=O)(Nc1nccs1)c1ccc(-c2nc(Cc3ccc(Oc4ccccc4)cc3)c[nH]2)cc1 [Compound 42, 4-[4-(4-Phenoxy-benzyl)-1H-imidazol-2-yl]-N-thiazol-2-yl-benzenesulfonamide]"
15,0.5 to 1 µM,"O=S(=O)(Nc1nccs1)c1ccc(-c2nc(CCCOc3ccc(Cl)cc3)c[nH]2)cc1 [Compound 9, 4-{4-[3-(4-Chloro-phenoxy)-propyl]-1H-imidazol-2-yl}-N-thiazol-2-yl-benzenesulfonamide]"
16,< 0.1 µM,"O=S(=O)(Nc1nccs1)c1ccc(-c2nc(Cc3cccc(Cl)c3)c[nH]2)cc1 [Compound 16, 4-[4-(3-Chloro-benzyl)-1H-imidazol-2-yl]-N-thiazol-2-yl-benzenesulfonamide]"
17,< 0.1 µM,"O=S(=O)(Nc1nccs1)c1ccc(-c2nc(Cc3ccc(Cl)cc3)n[nH]2)cc1F [Compound 114, 4-[5-(4-Chloro-benzyl)-2H-[1,2,4]triazol-3-yl]-2-fluoro-n-thiazol-2-yl-benzenesulfonamide]"
18,0.1 to 0.5 µM,"O=S(=O)(Nc1nccs1)c1ccc(-c2nc(CCc3ccc(F)cc3)c[nH]2)cc1 [Compound 15, 4-{4-[2-(4-Fluoro-phenyl)-ethyl]-1H-imidazol-2-yl}-N-thiazol-2-yl-benzenesulfonamide]"
19,> 1 µM,"O=S(=O)(Nc1nccs1)c1ccc(-c2nc(C3(c4ccccc4)CC3)c[nH]2)cc1 [Compound 41, 4-[4-(1-Phenyl-cyclopropyl)-1H-imidazol-2-yl]-N-thiazol-2-yl-benzenesulfonamide]"
